Some results are limits rather than exact numbers.

In general, EC50 refers to the concentration at which the effect is half-maximal. The term CC50 denotes the concentration at which the toxic effect on the cells reaches its halfway point. The term half-life denotes how long it takes for the measured level to halve. A word on the Tmax: it is the time at which the peak concentration occurs. What is called Cmax is the peak of the concentration-time curve. Broadly, the IC50 is the point on the concentration scale where inhibition reaches its midpoint.

Data set [1] relates to PDCoV. The conditions noted are these: ref Brown et al. [2019]; cited from earlier work.
Data set [2] deals with Vero E6 cells. In words: Cytotoxicity assay. It counts as cell-based, African green monkey. Particulars: 72 h, CCK-8 assay. For orientation: Tetrazolium dyes change colour on reduction, which living cells bring about.
The test system of data set [3] is PEDV. Kind of data set: Anti-PEDV activity assay, viral loads. The conditions noted are these: for concentration that completely inhibited PEDV replication: Vero E6 cells, PEDV 0.01 MOI, 48 h post infection, qRT-PCR and TCID50. The class given is cell-based. For orientation: Quantitative PCR measures a nucleic acid by following its amplification.
The subject of data set [4] is PEDV. Kind of data set: Anti-PEDV activity assay, PEDV-induced cytopathic effect. It counts as cell-based. Particulars: Vero E6 cells, PEDV 0.01 MOI, until virus control showed complete CPE.
Data set [5] concerns human cell lines and primary cells. The conditions noted are these: cited from earlier work.
A short description of data set [6]: Pharmacokinetics study of RDV-N in ICR mice. It counts as in vivo.
In data set [7] the test system is PEDV spike protein. Kind of data set: Indirect immuno-fluorescence assay. It counts as cell-based, porcine epidemic diarrhea virus, variant strain SDSX16. The conditions noted are these: 0.2 μmol/L, 48 h, Vero E6 cells.
A short description of data set [8]: Water solubility and lipophilicity. It counts as physicochemical.
Data set [9] has as its system feline infectious peritonitis virus (FIPV). The conditions noted are these: cats, subcutaneous, 5 mg/kg or 2 mg/kg; ref Murphy et al. [2018]; cited from earlier work.
Data set [10] has as its system PEDV 3CL^pro. Particulars: PEDV 3CLpro; ref Ye et al. [2020]; cited from earlier work.

With `CCC(CC)COC(=O)[C@H](C)N[P@](=O)(OC[C@H]1O[C@@](C#N)(c2ccc3c(N)ncnn23)[C@H](O)[C@@H]1O)Oc1ccccc1` [RDV, remdesivir], the EC50 in data set [1] is 20 nM. Besides, the “maximal non-toxic concentration (MNTC)” value in data set [2] stood at 125 µmol/L. The “concentration that completely inhibited PEDV replication” value in data set [3] worked out at 7.8 µmol/L. Also, the “concentration at which PEDV-induced CPE was obviously blocked” value in data set [4] stood at 0.5 µmol/L. Further, in data set [5], the CC50 was 1700 to 15000 nM.
In the case of `N#C[C@@]1(c2ccc3c(N)ncnn23)O[C@H](CO)[C@@H](O)[C@H]1O` [RDV-N], the “maximal non-toxic concentration (MNTC)” value in [2] was found to be 125 µmol/L. Moreover, the “fold more potent than NHC (EC50)” value in [3] (72 h post infection, qRT-PCR) came out at 3. For the same compound, the “concentration that completely inhibited PEDV replication” value in data set [3] was 2.0 µmol/L. Moreover, the half-life in data set [6] (male, ICR, mouse, plasma, iv, 25 mg/kg) was 1.02 h. The compound also had a half-life in data set [6] (male, ICR, mouse, plasma, po, 50 mg/kg) of 1.2 h. For the same compound, the Tmax in data set [6] (male, ICR, mouse, plasma, po, 50 mg/kg, Tmax, mice) is at most 1 h. For the same compound, the AUClast in [6] (mice, IV, 25 mg/kg) is listed as 14,513 h × ng/mL. Further, in data set [6] (mice, PO, 50 mg/kg), the AUClast was 4556 ng·h/mL and the Cmax is 1826 ng/mL. The “fluorescence intensity (viral protein expression)” value in data set [7] is “significantly decreased”. Besides, the “concentration at which PEDV-induced CPE was obviously blocked” value in data set [4] was 0.2 µmol/L. Also, in data set [8], the lipophilicity entry is “low lipophilicity” and the water solubility result is “poor water solubility”. For the same compound, the cure rate in data set [9] is listed as 100%.
For the compound GC376, the IC50 in data set [10] was 1110 nM.

(Values after PMC7983969 (Virologica Sinica, 2021).)
